According to patent US20050256132A1, “Use of ER selective NF-kB inhibitors for the treatment of sepsis” (priority 2003, published 2005):

Legend:
[1] = system: Creatine Kinase; test: Creatine kinase expression in Ad5-wt-ERα infected HAECT-1 cells (Table 1); format: cell-based, human; settings: Homo sapiens, HAECT1, read-out: Creatine Kinase EC50
Method: T-175 flasks of 100% confluent HAECT-1 cells (immortalized human aortic endothelial cells) were washed with 8 mL of HBSS (HEPES buffered saline solution) and infected for four hours with 6 mL of a 1:10 dilution of Ad5-wt-hERα virus (an adenovirus transfection vector that mediates CMV promoter driven expression of human ERα) in phenol red free Endothelial Cell Basal medium (Clonetics, San Diego Calif., Catalog # CC-3129) containing 0.25% bovine serum albumin (EBM-BSA). After four hours, cells were washed with EBM-BSA and incubated overnight in the same medium. Following overnight incubation, cells were washed with EBM-BSA and infected for 2 hours with 6 mL of a 1:10 dilution of Ad5-3x(NF-κB).Luc virus (Adenovirus luciferase expression vector driven by 3 repeats of the MHC NF-κb site 5′ to the thymidine kinase promoter) in EBM-BSA. […]
ERα infected HAECT-1 cells or control cells were thawed, diluted 42× in warm EBM-BSA, plated into 96-well plates at 0.1 mL/well and incubated for 4 hours at 34° C. […] Luciferase was determined on a Wallac Victor Luminometer (Gaithersburg, Md.) using 10 μL of lysate and mixing with 100 μL of Promega Luciferase Assay reagent. Creatine kinase was determined from the rate of increase in A340 following addition of 100 μL of CK assay reagent (Sigma, cat. No 47-10) to the remainder of the cell lysate. […]

[2] = system: CK; test: CK activity in lysate of ERα expressing HAECT-1 cells; format: cell-based, human; settings: FIG. 1D
Method: (A) The effect of compound 67 on NF-κB mediated luciferase reporter activity in HAECT-1 cells expressing ERα. […] (C) The effect of compound 67 on the human IL-6 promoter luciferase reporter activity in HAECT-1 cells expressing either ERα (squares) or ERβ (diamonds). (D) The remaining lysate from (A) was used to determine CK activity.
HAECT-1 cells (Chadwick C C, et al., Proc Natl Acad Sciences, 2005, 102(7): 2543-2548) were cultured in EGM (GIBCO, Rockville, Md.) containing 10% FBS, 1% GlutaMAX and 0.1% Antimycotic-Antibiotic in Falcon T-175 culture flasks at 34° C. in 5% CO2 and infected for four hours with Ad5-wt-ER virus. After overnight recovery, the cells were infected for 2 hours with the Ad5-3x(NFκB).Luc or Ad5-IL6.Luc virus. Compound 67 and 2 ng/ml IL-1 were added to the cells for 15-20 h and the cell lysate was assayed for luciferase activity and evaluated for CK expression (Stanbio Laboratories, Texas). The values are reported as mean±SEM with n=4 from at least 3 independent experiments.

With `C[C@]12CC[C@@H]3c4ccc(O)cc4CC[C@H]3[C@@H]1CC[C@@H]2O` [Example E2, 17β-estradiol, reference compound] the EC50 [1] was 5.8 nM, the “stimulation of CK activity” value [2] was “approximately 1.7 fold” and the EC50 ([2]; Homo sapiens, HAECT1) was 2 nM.
